The source of these data is BindingDB's records for patent US10709709 (Pfizer Inc., 2020).

Chain of Protein arginine N-methyltransferase 5 (O14744 whole entry): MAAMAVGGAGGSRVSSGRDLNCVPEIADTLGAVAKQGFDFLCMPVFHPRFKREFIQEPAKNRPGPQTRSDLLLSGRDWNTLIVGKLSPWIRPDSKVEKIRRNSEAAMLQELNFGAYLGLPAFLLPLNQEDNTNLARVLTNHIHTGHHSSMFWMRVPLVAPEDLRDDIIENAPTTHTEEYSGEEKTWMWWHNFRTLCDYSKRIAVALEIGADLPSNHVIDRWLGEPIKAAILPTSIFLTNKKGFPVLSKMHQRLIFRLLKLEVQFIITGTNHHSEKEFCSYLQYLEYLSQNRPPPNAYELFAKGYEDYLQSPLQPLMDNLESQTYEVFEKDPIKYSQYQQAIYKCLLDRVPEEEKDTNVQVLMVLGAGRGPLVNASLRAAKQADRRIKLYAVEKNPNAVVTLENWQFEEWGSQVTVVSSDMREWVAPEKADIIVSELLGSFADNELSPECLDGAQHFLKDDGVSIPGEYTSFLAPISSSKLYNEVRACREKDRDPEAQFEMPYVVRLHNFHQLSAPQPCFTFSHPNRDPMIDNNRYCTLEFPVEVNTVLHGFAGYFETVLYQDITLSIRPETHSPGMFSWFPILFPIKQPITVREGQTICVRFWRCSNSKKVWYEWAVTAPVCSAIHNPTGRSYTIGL

The target in this assay is Protein arginine N-methyltransferase 5 (Homo sapiens, UniProt O14744). Put plainly: Biochemical Assay. As to the method:
Compounds were solubilized in DMSO and serially diluted, using 3-fold dilutions, into 100% DMSO at a concentration 50-fold greater than the desired assay concentration. Following dilution, 1 ul was added to an empty 96-well microtiter plate. PRMT5/MEP50 protein complex was combined with H4(1-21) peptide ([…]) in PRMT5 assay buffer (50 mM Tris pH 8.5, 50 mM NaCl, 5 mM MgCl2, 1 mM EDTA, 1 mM TCEP) and 44 ul was added to the microtiter plate containing compound. S-Adenosyl-L-methionine (SAM) was prepared by combining 3H labelled SAM with unlabelled SAM in PRMT5 assay buffer such that the final SAM concentration was 10 uM and the specific activity was 0.2 uCi/ul. The reaction was initiated by adding 5 ul of SAM stock to the microtiter plate. The final reaction conditions were 10 nM PRMT5/MEP50 complex, 200 nM peptide and 1 uM SAM. Following a 25 minute incubation at room temperature, the reaction was stopped with the addition of 100 uL of 20% TCA. The 3H-peptide product was captured using a 96-well filter plate (MSIPN4B, Millipore) and washed 5 times with PBS buffer. Scintillation fluid (100 ul) was added to the dried filter plate and counted in a liquid scintillation counter. IC50 values were determined by fitting the data to the standard 4-parameter dose response equation using Pfizer proprietary software.
The compound `Nc1ncnc2c1c(Br)cn2[C@@H]1C[C@H](Oc2cc(Cl)cc3c2CNCC3)[C@@H](O)[C@H]1O` [US10709709, Example 131] showed an IC50 of 1 nM.

The compound `Cc1ncnc2c1ccn2[C@@H]1C[C@H](Oc2cc(C(F)F)cc3c2CNCCO3)[C@@H](O)[C@H]1O` [US10709709, Example 205] yielded an IC50 of 1 nM. Under `Cc1cc2c(c(O[C@H]3C[C@@H](n4ccc5c(C)ncnc54)[C@H](O)[C@@H]3O)c1)CNCCO2` [US10709709, Example 206] stands 2 nM.

Usually IC50 stands for the concentration at which inhibition is half-maximal. The low end stands for inhibition by little substance, the high end for a need for much substance.
